Measurements taken from ChEMBL document CHEMBL1153704, “Imidazo[1,2-a]pyrazine diaryl ureas: inhibitors of the receptor tyrosine kinase EphB4” (Bioorg Med Chem Lett, 2009).

Legend:
[1] = target: Ephrin type-A receptor 2 (Homo sapiens, UniProt P29317); assay: Inhibition of EPHA2 after 1 hr
[2] = target: T1, Ephrin type-B receptor 4 (Homo sapiens, UniProt P54760); assay: Inhibition of EphB4 after 1 hr
T1 sequence (P54760 whole entry): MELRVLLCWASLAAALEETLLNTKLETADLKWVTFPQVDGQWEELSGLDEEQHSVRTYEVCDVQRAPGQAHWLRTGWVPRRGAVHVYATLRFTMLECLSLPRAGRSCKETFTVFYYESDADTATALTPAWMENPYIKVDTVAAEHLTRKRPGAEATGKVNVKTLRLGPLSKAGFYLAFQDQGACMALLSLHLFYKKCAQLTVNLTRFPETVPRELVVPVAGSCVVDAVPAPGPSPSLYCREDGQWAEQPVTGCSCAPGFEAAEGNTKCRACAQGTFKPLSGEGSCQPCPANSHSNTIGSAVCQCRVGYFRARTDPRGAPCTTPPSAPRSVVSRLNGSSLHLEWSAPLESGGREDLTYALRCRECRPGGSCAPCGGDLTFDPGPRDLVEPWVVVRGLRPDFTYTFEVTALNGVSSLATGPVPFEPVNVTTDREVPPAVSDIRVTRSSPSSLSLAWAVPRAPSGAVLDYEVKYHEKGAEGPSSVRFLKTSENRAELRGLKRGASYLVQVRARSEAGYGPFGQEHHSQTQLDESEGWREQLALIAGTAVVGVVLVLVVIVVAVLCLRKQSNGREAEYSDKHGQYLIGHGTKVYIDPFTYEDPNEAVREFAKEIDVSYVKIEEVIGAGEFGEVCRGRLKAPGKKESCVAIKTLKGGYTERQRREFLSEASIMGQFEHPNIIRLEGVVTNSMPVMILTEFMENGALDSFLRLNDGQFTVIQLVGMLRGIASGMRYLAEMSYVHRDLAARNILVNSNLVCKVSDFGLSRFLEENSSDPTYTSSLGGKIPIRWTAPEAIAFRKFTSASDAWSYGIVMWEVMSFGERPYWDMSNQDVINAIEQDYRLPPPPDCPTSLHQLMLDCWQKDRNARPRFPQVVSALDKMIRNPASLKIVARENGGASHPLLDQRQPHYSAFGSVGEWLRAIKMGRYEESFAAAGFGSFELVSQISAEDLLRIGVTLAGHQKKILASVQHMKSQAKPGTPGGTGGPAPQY

[3] = target: Angiopoietin-1 receptor (Homo sapiens, UniProt Q02763); assay: Inhibition of Tie2 after 1 hr
[4] = target: Vascular endothelial growth factor receptor 3 (Homo sapiens, UniProt P35916); assay: Inhibition of VEGFR3 after 1 hr
[5] = target: Tyrosine-protein kinase BTK (Homo sapiens, UniProt Q06187); assay: Inhibition of Btk after 1 hr
[6] = target: Tyrosine-protein kinase Lyn (Homo sapiens, UniProt P07948); assay: Inhibition of Lyn after 1 hr
[7] = target: Tyrosine-protein kinase ABL1 (Homo sapiens, UniProt P00519); assay: Inhibition of Abl1 after 1 hr
[8] = target: T2, Receptor-type tyrosine-protein kinase FLT3 (Homo sapiens, UniProt P36888); assay: Inhibition of Flt3 after 1 hr
T2 sequence (P36888 whole entry): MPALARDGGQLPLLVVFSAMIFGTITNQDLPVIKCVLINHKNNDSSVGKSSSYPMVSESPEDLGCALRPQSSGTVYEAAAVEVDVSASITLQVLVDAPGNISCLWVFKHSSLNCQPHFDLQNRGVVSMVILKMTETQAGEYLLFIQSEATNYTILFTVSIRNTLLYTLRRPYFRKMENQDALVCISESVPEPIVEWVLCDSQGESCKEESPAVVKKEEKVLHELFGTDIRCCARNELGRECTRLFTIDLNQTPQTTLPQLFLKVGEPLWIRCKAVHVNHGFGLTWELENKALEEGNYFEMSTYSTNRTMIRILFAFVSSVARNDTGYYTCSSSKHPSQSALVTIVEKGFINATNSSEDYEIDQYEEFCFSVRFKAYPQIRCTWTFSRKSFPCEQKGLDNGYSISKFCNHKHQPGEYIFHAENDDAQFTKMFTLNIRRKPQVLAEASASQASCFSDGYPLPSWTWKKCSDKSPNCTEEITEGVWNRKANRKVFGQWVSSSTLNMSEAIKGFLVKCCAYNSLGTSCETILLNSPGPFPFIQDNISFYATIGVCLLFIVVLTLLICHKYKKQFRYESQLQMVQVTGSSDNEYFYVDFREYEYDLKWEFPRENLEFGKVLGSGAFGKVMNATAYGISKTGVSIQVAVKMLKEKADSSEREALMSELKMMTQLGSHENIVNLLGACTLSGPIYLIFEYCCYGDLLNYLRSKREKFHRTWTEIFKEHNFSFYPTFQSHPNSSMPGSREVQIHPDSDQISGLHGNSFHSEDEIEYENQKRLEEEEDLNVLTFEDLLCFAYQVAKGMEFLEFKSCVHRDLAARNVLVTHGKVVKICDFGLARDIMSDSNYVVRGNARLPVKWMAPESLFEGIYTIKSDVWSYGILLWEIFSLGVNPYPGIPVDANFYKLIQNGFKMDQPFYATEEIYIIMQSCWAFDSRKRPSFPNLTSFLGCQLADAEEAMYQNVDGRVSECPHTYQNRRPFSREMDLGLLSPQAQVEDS

[9] = target: Platelet-derived growth factor receptor beta (Homo sapiens, UniProt P09619); assay: Inhibition of PDGFRbeta after 1 hr
[10] = target: Vascular endothelial growth factor receptor 2 (Homo sapiens, UniProt P35968); assay: Inhibition of VEGFR2 after 1 hr
[11] = target: Vascular endothelial growth factor receptor 1 (Homo sapiens, UniProt P17948); assay: Inhibition of VEGFR1 after 1 hr

Sequence of Ephrin type-A receptor 2 (P29317 whole entry): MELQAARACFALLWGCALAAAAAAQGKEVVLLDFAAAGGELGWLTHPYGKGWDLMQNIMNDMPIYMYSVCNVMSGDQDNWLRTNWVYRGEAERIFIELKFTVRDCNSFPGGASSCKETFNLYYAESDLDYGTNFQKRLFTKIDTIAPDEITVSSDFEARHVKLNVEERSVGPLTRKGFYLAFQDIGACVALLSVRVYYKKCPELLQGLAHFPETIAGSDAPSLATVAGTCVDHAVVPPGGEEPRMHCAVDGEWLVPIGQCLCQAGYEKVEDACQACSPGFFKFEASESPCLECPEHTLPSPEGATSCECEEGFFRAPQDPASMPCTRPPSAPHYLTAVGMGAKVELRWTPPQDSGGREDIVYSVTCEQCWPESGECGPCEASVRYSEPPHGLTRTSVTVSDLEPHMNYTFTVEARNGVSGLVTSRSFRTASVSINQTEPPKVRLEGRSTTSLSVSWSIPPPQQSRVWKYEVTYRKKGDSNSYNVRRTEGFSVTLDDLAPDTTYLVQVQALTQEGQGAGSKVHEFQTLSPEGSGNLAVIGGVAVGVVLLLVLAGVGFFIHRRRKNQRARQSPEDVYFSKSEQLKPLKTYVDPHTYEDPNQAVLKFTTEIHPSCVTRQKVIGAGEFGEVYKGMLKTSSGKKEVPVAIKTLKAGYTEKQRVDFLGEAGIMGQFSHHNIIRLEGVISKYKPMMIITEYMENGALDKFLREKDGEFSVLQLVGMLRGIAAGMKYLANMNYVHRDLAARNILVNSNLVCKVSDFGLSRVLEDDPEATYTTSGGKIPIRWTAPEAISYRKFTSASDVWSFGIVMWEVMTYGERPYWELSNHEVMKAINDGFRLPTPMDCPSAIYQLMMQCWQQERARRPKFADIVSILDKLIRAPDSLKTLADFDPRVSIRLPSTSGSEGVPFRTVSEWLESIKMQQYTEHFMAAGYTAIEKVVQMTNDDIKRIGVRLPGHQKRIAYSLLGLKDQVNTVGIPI
Sequence of Angiopoietin-1 receptor (Q02763 whole entry): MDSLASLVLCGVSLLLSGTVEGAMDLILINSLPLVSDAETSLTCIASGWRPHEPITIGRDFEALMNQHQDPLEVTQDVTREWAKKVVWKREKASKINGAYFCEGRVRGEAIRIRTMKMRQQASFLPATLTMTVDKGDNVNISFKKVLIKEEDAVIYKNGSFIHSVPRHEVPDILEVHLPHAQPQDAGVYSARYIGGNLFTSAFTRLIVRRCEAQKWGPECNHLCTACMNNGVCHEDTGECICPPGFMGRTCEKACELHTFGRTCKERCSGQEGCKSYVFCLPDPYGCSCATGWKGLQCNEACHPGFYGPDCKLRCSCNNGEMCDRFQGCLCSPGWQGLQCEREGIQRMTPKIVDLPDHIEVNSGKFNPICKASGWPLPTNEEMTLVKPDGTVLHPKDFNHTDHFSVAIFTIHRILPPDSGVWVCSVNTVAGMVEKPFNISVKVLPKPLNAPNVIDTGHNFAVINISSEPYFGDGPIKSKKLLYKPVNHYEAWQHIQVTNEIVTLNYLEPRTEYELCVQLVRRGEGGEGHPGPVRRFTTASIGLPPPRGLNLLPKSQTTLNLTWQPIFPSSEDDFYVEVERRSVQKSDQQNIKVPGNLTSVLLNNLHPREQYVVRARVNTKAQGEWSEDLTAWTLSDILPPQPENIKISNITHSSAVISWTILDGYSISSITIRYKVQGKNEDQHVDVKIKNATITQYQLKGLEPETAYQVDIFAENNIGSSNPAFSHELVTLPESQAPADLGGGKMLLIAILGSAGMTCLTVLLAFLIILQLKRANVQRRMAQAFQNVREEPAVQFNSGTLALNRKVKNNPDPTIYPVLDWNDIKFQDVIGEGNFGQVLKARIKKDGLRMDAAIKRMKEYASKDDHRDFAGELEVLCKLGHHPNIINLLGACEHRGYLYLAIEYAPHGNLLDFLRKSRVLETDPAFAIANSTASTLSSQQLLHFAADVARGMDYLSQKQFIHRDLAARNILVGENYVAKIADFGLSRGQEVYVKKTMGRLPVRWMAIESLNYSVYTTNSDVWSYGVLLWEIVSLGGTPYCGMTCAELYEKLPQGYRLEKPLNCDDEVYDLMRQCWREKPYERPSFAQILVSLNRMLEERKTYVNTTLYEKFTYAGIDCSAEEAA
Sequence of Tyrosine-protein kinase Lyn (P07948 whole entry): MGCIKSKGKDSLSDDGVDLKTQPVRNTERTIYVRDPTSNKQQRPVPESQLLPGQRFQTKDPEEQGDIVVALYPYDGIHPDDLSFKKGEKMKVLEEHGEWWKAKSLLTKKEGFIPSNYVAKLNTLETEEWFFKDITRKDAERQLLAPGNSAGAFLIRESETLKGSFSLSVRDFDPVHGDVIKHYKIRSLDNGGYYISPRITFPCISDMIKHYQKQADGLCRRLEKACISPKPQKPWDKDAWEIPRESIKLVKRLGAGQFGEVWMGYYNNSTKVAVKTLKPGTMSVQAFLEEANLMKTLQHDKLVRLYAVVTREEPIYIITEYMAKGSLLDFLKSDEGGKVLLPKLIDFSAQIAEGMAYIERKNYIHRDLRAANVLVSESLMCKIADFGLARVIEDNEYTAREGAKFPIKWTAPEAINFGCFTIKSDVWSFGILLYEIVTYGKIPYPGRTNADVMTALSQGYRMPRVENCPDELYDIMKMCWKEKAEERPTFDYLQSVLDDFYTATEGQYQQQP
Sequence of Platelet-derived growth factor receptor beta (P09619 whole entry): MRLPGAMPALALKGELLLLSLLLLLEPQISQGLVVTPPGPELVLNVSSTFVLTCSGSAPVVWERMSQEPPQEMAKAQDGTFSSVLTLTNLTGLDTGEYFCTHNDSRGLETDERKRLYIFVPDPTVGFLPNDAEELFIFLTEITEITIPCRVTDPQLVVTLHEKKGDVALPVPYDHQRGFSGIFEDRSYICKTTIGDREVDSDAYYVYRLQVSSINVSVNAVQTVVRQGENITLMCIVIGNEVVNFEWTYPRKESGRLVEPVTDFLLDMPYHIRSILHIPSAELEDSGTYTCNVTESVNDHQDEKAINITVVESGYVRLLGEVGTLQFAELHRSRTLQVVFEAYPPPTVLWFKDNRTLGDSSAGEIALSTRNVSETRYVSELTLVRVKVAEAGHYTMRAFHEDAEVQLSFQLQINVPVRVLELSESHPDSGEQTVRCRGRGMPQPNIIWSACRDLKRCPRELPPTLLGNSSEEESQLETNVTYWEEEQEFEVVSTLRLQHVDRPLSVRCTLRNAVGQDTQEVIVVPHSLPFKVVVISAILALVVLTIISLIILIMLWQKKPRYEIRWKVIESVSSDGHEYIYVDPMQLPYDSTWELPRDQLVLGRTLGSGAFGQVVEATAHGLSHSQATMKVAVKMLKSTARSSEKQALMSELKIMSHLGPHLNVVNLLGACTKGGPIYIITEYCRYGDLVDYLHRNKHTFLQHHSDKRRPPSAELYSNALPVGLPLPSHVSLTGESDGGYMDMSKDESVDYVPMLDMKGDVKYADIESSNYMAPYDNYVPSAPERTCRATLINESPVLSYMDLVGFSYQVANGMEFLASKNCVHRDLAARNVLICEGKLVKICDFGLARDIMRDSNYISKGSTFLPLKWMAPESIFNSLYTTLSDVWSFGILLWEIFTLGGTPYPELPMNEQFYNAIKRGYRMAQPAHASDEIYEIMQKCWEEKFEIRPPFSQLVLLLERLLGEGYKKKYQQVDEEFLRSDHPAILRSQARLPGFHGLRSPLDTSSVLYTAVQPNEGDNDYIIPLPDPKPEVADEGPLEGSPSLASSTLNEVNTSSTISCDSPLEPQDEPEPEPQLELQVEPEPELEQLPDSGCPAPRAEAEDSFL
Sequence of Vascular endothelial growth factor receptor 3 (P35916 whole entry): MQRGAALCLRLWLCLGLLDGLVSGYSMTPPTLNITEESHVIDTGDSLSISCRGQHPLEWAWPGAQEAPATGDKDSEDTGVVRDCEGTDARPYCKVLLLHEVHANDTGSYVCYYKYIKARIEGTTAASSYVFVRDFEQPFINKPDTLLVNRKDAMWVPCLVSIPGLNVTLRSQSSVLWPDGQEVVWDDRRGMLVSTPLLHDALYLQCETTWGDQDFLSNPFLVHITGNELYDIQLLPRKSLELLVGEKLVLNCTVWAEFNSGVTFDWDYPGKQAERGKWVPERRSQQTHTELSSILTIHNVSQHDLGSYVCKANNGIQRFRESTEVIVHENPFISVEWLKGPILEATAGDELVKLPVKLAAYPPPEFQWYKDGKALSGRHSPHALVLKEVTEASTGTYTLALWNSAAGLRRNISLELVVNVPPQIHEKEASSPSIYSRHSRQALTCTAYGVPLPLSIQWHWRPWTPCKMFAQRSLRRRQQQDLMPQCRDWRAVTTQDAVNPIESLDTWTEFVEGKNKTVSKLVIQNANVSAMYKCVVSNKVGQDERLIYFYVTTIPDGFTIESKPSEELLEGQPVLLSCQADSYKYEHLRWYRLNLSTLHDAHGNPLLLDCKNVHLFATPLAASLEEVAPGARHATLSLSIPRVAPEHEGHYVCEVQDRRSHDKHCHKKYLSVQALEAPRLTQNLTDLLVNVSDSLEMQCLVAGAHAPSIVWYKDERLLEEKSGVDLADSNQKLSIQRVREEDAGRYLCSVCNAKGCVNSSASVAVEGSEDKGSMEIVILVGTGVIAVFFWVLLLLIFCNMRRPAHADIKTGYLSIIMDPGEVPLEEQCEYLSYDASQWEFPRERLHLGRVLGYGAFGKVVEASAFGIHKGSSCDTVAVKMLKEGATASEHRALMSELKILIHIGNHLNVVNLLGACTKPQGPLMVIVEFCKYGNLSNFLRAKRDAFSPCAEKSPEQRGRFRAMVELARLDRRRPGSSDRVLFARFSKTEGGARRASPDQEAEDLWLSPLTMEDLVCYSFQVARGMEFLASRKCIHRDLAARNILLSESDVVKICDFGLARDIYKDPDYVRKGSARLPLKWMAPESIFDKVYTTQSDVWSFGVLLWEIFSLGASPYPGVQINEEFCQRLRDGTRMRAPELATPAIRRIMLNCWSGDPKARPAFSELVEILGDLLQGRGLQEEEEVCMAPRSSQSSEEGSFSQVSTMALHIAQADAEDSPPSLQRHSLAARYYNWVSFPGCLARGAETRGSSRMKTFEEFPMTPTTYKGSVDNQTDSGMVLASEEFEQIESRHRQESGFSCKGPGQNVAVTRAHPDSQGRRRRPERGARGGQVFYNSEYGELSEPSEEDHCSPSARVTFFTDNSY

## O=C(Nc1cccc(-c2cn3ccnc3c(NCc3ccncc3)n2)c1)Nc1cccc(C(F)(F)F)c1
[1]
  IC50: 35 nM
[2]
  IC50: 62 nM
[3]
  IC50: 67 nM
[4]
  IC50: 71 nM
[5]
  IC50: 7.8 µM
[6]
  IC50: 6 µM
[7]
  IC50: 14.4 µM
[8]
  IC50: 2000 nM
[9]
  IC50: 7.7 µM
[10]
  IC50: 33 nM
[11]
  IC50: 747 nM
